Experimental data taken from article doi:10.1101/2021.10.07.463234v2 (biorxiv, 2021).
Structures can show the parent of a compound that is named as a salt.

Target: SARS-CoV-2 Mac1 (Severe acute respiratory syndrome coronavirus 2, UniProt P0DTD1)
Experiment: biochemical
Conditions: 100 µM; inhibitor

SMILES | %inhibition [%]
CC[C@H]1OC(=O)[C@H](C)[C@@H](O[C@H]2C[C@@](C)(OC)[C@@H](O)[C@H](C)O2)[C@H](C)[C@@H](O[C@@H]2O[C@H](C)C[C@H](N(C)C)[C@H]2O)[C@](C)(O)C[C@@H](C)C(=O)[C@H](C)[C@@H](O)[C@]1(C)O [Erythromycin thiocyanate] | 1.029
CC[C@H]1OC(=O)[C@H](C)[C@@H](O[C@H]2C[C@@](C)(OC)[C@@H](O)[C@H](C)O2)[C@H](C)[C@@H](O[C@@H]2O[C@H](C)C[C@H](N(C)C)[C@H]2O)[C@](C)(O)C[C@@H](C)C(=O)[C@H](C)[C@@H](O)[C@]1(C)O [Erythromycin] | 0
COc1ccc2[nH]c([S@@+]([O-])Cc3ncc(C)c(OC)c3C)nc2c1 [Esomeprazole sodium] | 0
CC(C(=O)O)c1cccc(Oc2ccccc2)c1 (stereo not drawn) [Fenoprofen Calcium] | 9.442

Same assay, conditions: read-out: %inhibition

SMILES | inhibition at 100 µM [%]
CCOC(=O)CCC(=O)O[C@H]1[C@H](O[C@@H]2[C@@H](C)[C@H](O[C@H]3C[C@@](C)(OC)[C@@H](O)[C@H](C)O3)[C@@H](C)C(=O)O[C@H](CC)[C@@](C)(O)[C@H](O)[C@@H](C)C(=O)[C@H](C)C[C@@]2(C)O)O[C@H](C)C[C@@H]1N(C)C [Erythromycin Ethylsuccinate] | 0
C/C=C(\C)C(=O)O[C@H]1[C@H](OC(C)=O)[C@@]2(CO)C(CC1(C)C)C1=CCC3[C@@]4(C)CCC(O[C@@H]5O[C@H](C(=O)O)[C@@H](O[C@@H]6O[C@H](CO)[C@@H](O)[C@H](O)[C@H]6O)[C@H](O)[C@H]5O[C@@H]5O[C@H](CO)[C@@H](O)[C@H](O)[C@H]5O)[C@](C)(CO)C4CC[C@@]3(C)[C@]1(C)C[C@H]2O (stereo partly drawn) [Escin] | 6.9
CN(C)CCC[C@@]1(c2ccc(F)cc2)OCc2cc(C#N)ccc21 [Escitalopram Oxalate] | 0
CC(=O)O[C@H]1Cc2ccccc2N(C(N)=O)c2ccccc21 [Eslicarbazepine Acetate] | 0
COC(=O)CCc1ccc(OCC(O)CNC(C)C)cc1 (stereo not drawn) [Esmolol HCl] | 12
C[C@]12CC[C@@H]3c4ccc(OC(=O)c5ccccc5)cc4CC[C@H]3[C@@H]1CC[C@@H]2O [Estradiol Benzoate] | 20.5
C[C@]12CC[C@@H]3c4ccc(O)cc4CC[C@H]3[C@@H]1CC[C@@H]2OC(=O)CCC1CCCC1 [Estradiol Cypionate] | 0
CCCCC(=O)O[C@H]1CC[C@H]2[C@@H]3CCc4cc(O)ccc4[C@H]3CC[C@]12C [Estradiol valerate] | 3.33
C[C@]12CC[C@@H]3c4ccc(O)cc4CC[C@H]3[C@@H]1CC[C@@H]2O [Estradiol] | 0
C[C@]12CC[C@@H]3c4ccc(O)cc4CC[C@H]3[C@@H]1C[C@@H](O)[C@@H]2O [Estriol] | 0
C[C@]12CC[C@@H]3c4ccc(O)cc4CC[C@H]3[C@@H]1CCC2=O [Estrone] | 0
C[C@]12CC[C@@H]3c4ccc(OS(=O)(=O)O)cc4CC[C@H]3[C@@H]1CCC2=O [Estropipate] | 8.24
CCOc1ccc2nc3cc(N)ccc3c(N)c2c1 [Ethacridine lactate monohydrate] | 25.8
CC[C@@H](CO)NCCN[C@@H](CC)CO [Ethambutol 2HCl] | 7.53
O=S(=O)(O)c1cc(O)ccc1O [Ethamsylate] | 0
C#C[C@]1(O)CC[C@H]2[C@@H]3CCc4cc(O)ccc4[C@H]3CC[C@@]21C [Ethinyl Estradiol] | 0
CCc1cc(C(N)=S)ccn1 [Ethionamide] | 19.8
CCC1(C)CC(=O)NC1=O (stereo not drawn) [Ethosuximide] | 0
CCOC(=O)c1ccc(O)cc1 [Ethylparaben] | 2.11
C#C[C@]1(OC(C)=O)CC[C@H]2[C@@H]3CCC4=C[C@@H](OC(C)=O)CC[C@@H]4[C@H]3CC[C@@]21C [Ethynodiol diacetate] | 0
CC(O)(P(=O)(O)O)P(=O)(O)O [Etidronate] | 0
CCc1cccc2c3c([nH]c12)C(CC)(CC(=O)O)OCC3 (stereo not drawn) [Etodolac] | 0

SMILES | inhibition at 100 µM [%]
CC(C)(Oc1ccc(Cl)cc1)C(=O)OCCOC(=O)c1cccnc1 [Etofibrate] | 4.59
CCOC(=O)c1cncn1[C@H](C)c1ccccc1 [Etomidate] | 8.82
C#C[C@]1(O)CC[C@H]2[C@@H]3CCC4=CC(=O)CC[C@@H]4[C@H]3C(=C)C[C@@]21CC [Etonogestrel] | 0
COc1cc([C@@H]2c3cc4c(cc3[C@@H](O[C@@H]3O[C@@H]5CO[C@@H](C)O[C@H]5[C@H](O)[C@H]3O)[C@H]3COC(=O)[C@H]23)OCO4)cc(OC)c1O [Etoposide] | 25.5
Cc1ccc(-c2ncc(Cl)cc2-c2ccc(S(C)(=O)=O)cc2)cn1 [Etoricoxib] | 0
Cc1cc(C#N)cc(C)c1Oc1nc(Nc2ccc(C#N)cc2)nc(N)c1Br [Etravirine (TMC125)] | 5.29
CCOC(=O)/C=C(C)/C=C/C=C(C)/C=C/c1c(C)cc(OC)c(C)c1C [Etretinate] | 24.9
Cc1cc(C)c2c(c1)[C@@H](N(Cc1cc(C(F)(F)F)cc(C(F)(F)F)c1)c1nnn(C)n1)CCCN2C[C@H]1CC[C@H](C(=O)O)CC1 [Evacetrapib (LY2484595)] | 28.7
CO[C@H]1C[C@@H]2CC[C@@H](C)[C@@](O)(O2)C(=O)C(=O)N2CCCC[C@H]2C(=O)O[C@H]([C@H](C)C[C@@H]2CC[C@@H](OCCO)[C@H](OC)C2)CC(=O)[C@H](C)/C=C(\C)[C@@H](O)[C@@H](OC)C(=O)[C@H](C)C[C@H](C)/C=C/C=C/C=C/1C [Everolimus (RAD001)] | 11.2
Cn1c(COP(=O)(NCCBr)NCCBr)cnc1[N+](=O)[O-] [Evofosfamide (TH-302)] | 12.7
C=C1C[C@@H]2[C@H](CC[C@]3(C)C(=O)CC[C@@H]23)[C@@]2(C)C=CC(=O)C=C12 [Exemestane] | 11.1
O=C1[C@H](CC[C@H](O)c2ccc(F)cc2)[C@@H](c2ccc(O)cc2)N1c1ccc(F)cc1 [Ezetimibe] | 5.79
CC(=O)OCC(CCn1cnc2cnc(N)nc21)COC(C)=O [Famciclovir] | 0
NC(N)=Nc1nc(CSCC/C(N)=N/S(N)(=O)=O)cs1 [Famotidine] | 1.86
C[C@@H](O)[C@H]1C(=O)N2C(C(=O)O)=C([C@H]3CCCO3)S[C@H]12 [Faropenem Sodium] | 0
O=S(=O)(c1cccc2cnccc12)N1CCCNCC1 [Fasudil (HA-1077) HCl] | 0
NC(=O)c1nc(F)cnc1O [Favipiravir (T-705)] | 0.111
Cc1nc(-c2ccc(OCC(C)C)c(C#N)c2)sc1C(=O)O [Febuxostat] | 4.8
Cc1cnc(Nc2ccc(OCCN3CCCC3)cc2)nc1Nc1cccc(S(=O)(=O)NC(C)(C)C)c1 [Fedratinib (SAR302503, TG101348)] | 17.5
NC(=O)OCC(COC(N)=O)c1ccccc1 [Felbamate] | 22
O=C(O)CCC(=O)c1ccc(-c2ccccc2)cc1 [Fenbufen] | 0
CCCCC(O)c1ccccc1 (stereo not drawn) [Fenipentol] | 4.29

SMILES | inhibition at 100 µM [%]
CC(C)OC(=O)C(C)(C)Oc1ccc(C(=O)c2ccc(Cl)cc2)cc1 [Fenofibrate] | 28.9
CC(C)(Oc1ccc(C(=O)c2ccc(Cl)cc2)cc1)C(=O)O [Fenofibric acid] | 0
Oc1ccc(C2CNCCc3c2cc(O)c(O)c3Cl)cc1 (stereo not drawn) [Fenoldopam mesylate] | 0
CC(C(=O)O)c1cccc(Oc2ccccc2)c1 (stereo not drawn) [Fenoprofen calcium hydrate] | 8.96
O=C1NCC2(CCN(CCc3ccccc3)CC2)O1 [Fenspiride HCl] | 26.5
Clc1ccc(C(Cn2ccnc2)OCc2ccc(Sc3ccccc3)cc2)c(Cl)c1 (stereo not drawn) [Fenticonazole Nitrate] | 0
CC(C)C(=O)Oc1ccc(CO)cc1[C@H](CCN(C(C)C)C(C)C)c1ccccc1 [Fesoterodine Fumarate] | 0
CC(C)(C(=O)O)c1ccc(C(O)CCCN2CCC(C(O)(c3ccccc3)c3ccccc3)CC2)cc1 (stereo not drawn) [Fexofenadine HCl] | 9.61
CCc1c(Cl)c(O)c(Cl)c(O)c1C(=O)O[C@H]1[C@H](O)[C@H](OC)[C@H](OC/C2=C\C=C\C[C@H](O)/C(C)=C/[C@H](CC)[C@@H](O[C@@H]3OC(C)(C)[C@@H](OC(=O)C(C)C)[C@H](O)[C@@H]3O)/C(C)=C/C(C)=C/C[C@@H]([C@@H](C)O)OC2=O)O[C@@H]1C [Fidaxomicin] | 5.76
O=C(Nc1nc2cccc(-c3ccc(CN4CCS(=O)(=O)CC4)cc3)n2n1)C1CC1 [Filgotinib (GLPG0634)] | 17
CCCCc1nc(C)c(CC(=S)N(C)C)c(=O)n1Cc1ccc(-c2ccccc2-c2nnn[nH]2)cc1 [Fimasartan] | 22.3
CC(C)(C)NC(=O)[C@H]1CC[C@H]2[C@@H]3CC[C@H]4NC(=O)C=C[C@]4(C)[C@H]3CC[C@]12C [Finasteride] | 0
CCCCCCCCc1ccc(CCC(N)(CO)CO)cc1 [Fingolimod (FTY720) HCl] | 33
CN1CC[C@H](c2c(O)cc(O)c3c(=O)cc(-c4ccccc4Cl)oc23)[C@H](O)C1 [Flavopiridol (Alvocidib)] | 50.4
Cc1c(-c2ccccc2)oc2c(C(=O)OCCN3CCCCC3)cccc2c1=O [Flavoxate HCl] | 0
O=c1[nH]c2ccccc2n1CCN1CCN(c2cccc(C(F)(F)F)c2)CC1 [Flibanserin] | 0
CCC(=O)c1c(O)cc(O)cc1O [Flopropione] | 7.24
CS(=O)(=O)c1ccc([C@@H](O)[C@@H](CF)NC(=O)C(Cl)Cl)cc1 [Florfenicol] | 30.4
O=c1[nH]c(=O)n([C@H]2C[C@H](O)[C@@H](CO)O2)cc1F [Floxuridine] | 0
COC(=O)Nc1nc2cc(C(=O)c3ccc(F)cc3)ccc2[nH]1 [Flubendazole] | 4.36
Cc1onc(-c2c(F)cccc2Cl)c1C(=O)N[C@@H]1C(=O)N2[C@@H]1SC(C)(C)[C@@H]2C(=O)O [Flucloxacillin sodium] | 1.41
